Laboratory results reported in ChEMBL document CHEMBL1133955, “Design and synthesis of new inhibitors of HIV-1 protease dimerization with conformationally constrained templates” (Bioorg Med Chem Lett, 2001).

Tests used:
[1] = molecular target: Human immunodeficiency virus type 1 protease (Human immunodeficiency virus 1) (UniProt Q72874); experiment: Compound was tested for inhibition of HIV-1 protease (taken from ZhangPoorman plot)
[2] = molecular target: Human immunodeficiency virus type 1 protease (Human immunodeficiency virus 1, UniProt Q72874); experiment: Inhibitory activity against HIV-1 protease
[3] = molecular target: Human immunodeficiency virus type 1 protease (Human immunodeficiency virus 1) (UniProt Q72874); experiment: Compound was tested for inhibition of HIV-1 protease by a dissociative mechanism

## COc1ccc(NC(=O)C(=O)O)cc1C(=O)NNC(=O)OCC1c2ccccc2-c2ccccc21
[1]
  Kid: 9.1 µM
[2]
  IC50: 30 µM

## CC[C@@H](C)[C@H](NC(=O)[C@@H](NC(=O)[C@H](CC(C)C)NC(=O)[C@@H](N)Cc1c[nH]c2ccccc12)[C@H](C)O)C(=O)NCCc1cccc2c1oc1c(CCC(=O)N[C@H](C(=O)N[C@@H](Cc3ccc(O)cc3)C(=O)N[C@@H](CC(N)=O)C(=O)N[C@@H](Cc3ccccc3)C(=O)O)[C@H](C)O)cccc12
[3]
  Kid: 5.4 µM
[2]
  IC50: 12 µM
